According to US5084453A, “1-carboxy-1-vinyloxyimino aminothiazole cephalosporin derivatives” (priority 1988, dated 1992):
In brackets after ≈: the same amount, converted by molar mass. Where two headings read alike, the source gives them in different places.

How the values were obtained:
Assay in all cases: in vitro antibacterial activity, agar plate dilution method
Format in all cases: cell-based
[1] = system: A. calcoaceticus No. 4; details: Acinetobacter calcoaceticus
Description: (§1) Now, the in vitro antibacterial activities of the compounds of the present invention against various microorganisms, were measured by the following agar plate dilution method.
(§2) One platinum loopfull of each test microorganism incubated overnight in Mueller Hinton broth, was inoculated to Mueller Hinton agar (MH agaer). Such culture media containing various antibiotics in various concentrations were prepared. After incubation at 37° C. for 16 hours, the minimum inhibitory concentrations (MIC μg/ml) were measured.

[2] = system: E. cloacae 963; details: Enterobacter cloacae, 963, 16 h
Description: as §1, §2

[3] = system: E. cloacae Nek 39*; details: Enterobacter cloacae
Description: as §1, §2

[4] = system: E. coli CSH(RE45)*; details: Escherichia coli; 10^6 CFU/ml; β-Lactamase-producing strain; 37° C., 16 hours; read-out: MIC
Description: as §1, §2

[5] = system: E. coli CSH2(RK1)*; details: Escherichia coli, 16 h
Description: as §1, §2

[6] = system: E. coli GN5482*; details: Escherichia coli
Description: as §1, §2

[7] = system: E. coli NIHJ JC2; details: Escherichia coli, NIHJJC2; 10^6 CFU/ml; Mueller Hinton agar, 37° C., 16 hours; read-out: MIC
Description: as §1, §2

[8] = system: K. oxytoca GN10650*; details: Klebsiella oxytoca, GN10650, 16 h
Description: as §1, §2

[9] = system: K. pneumoniae No. 42*; details: Klebsiella pneumoniae
Description: as §1, §2

[10] = system: K. pneumoniae PC1-602; details: Klebsiella pneumoniae
Description: as §1, §2

[11] = system: M. morganii GN5407*; details: Morganella morganii, GN5407, 16 h
Description: as §1, §2

[12] = system: P. vulgaris HX-19; details: Proteus vulgaris
Description: as §1, §2

[13] = system: P. vulgaris No. 33*; details: Proteus vulgaris
Description: as §1, §2

[14] = system: Ps. aeruginosa AK 109; details: Pseudomonas aeruginosa
Description: as §1, §2

[15] = system: Ps. aeruginosa AKR17; details: Pseudomonas aeruginosa
Description: as §1, §2

[16] = system: Ps. aeruginosa IFO3445; details: Pseudomonas aeruginosa
Description: as §1, §2

[17] = system: Ps. cepacia 23; details: Burkholderia cepacia, 23; 10^6 CFU/ml; Mueller Hinton agar, 37° C., 16 hours; read-out: MIC
Description: as §1, §2

[18] = system: S. aureus 209P NIHJ-JC1; details: Staphylococcus aureus
Description: as §1, §2

[19] = system: S. marcescens IAM 1184; details: Serratia marcescens
Description: as §1, §2

[20] = system: S. marcescens No. 16-2*; details: Serratia marcescens
Description: as §1, §2

[21] = PC1602, 10^6 CFU/ml, Mueller Hinton agar, 37° C., 16 hours, read-out: MIC
[22] = HX19, 10^6 CFU/ml, Mueller Hinton agar, 37° C., 16 hours, read-out: MIC
[23] = 10^6 CFU/ml, Mueller Hinton agar, 37° C., 16 hours, read-out: MIC
[24] = NO.4, 10^6 CFU/ml, Mueller Hinton agar, 37° C., 16 hours, read-out: MIC
[25] = 10^6 CFU/ml, β-Lactamase-producing strain, 37° C., 16 hours, read-out: MIC
[26] = AK109, 10^6 CFU/ml, Mueller Hinton agar, 37° C., 16 hours, read-out: MIC
[27] = AKR17, 10^6 CFU/ml, Mueller Hinton agar, 37° C., 16 hours, read-out: MIC
[28] = IFO3445, 10^6 CFU/ml, Mueller Hinton agar, 37° C., 16 hours, read-out: MIC
[29] = IAM1184, 10^6 CFU/ml, Mueller Hinton agar, 37° C., 16 hours, read-out: MIC

SMILES | MIC [2] | MIC ([3]; 16 h) | MIC [4] | MIC [5] | MIC ([6]; GN5482, 16 h) | MIC [7] | MIC [8] | MIC ([9]; 16 h) | MIC [10, 21] | MIC [11] | MIC [12, 22] | MIC ([13]; 16 h) | MIC ([14]; AK109, 16 h) | MIC ([16]; IFO3445, 16 h) | MIC [17] | MIC [18, 23] | MIC ([19]; IAM1184, 16 h) | MIC ([20]; 16 h) | MIC [1, 24] | MIC [15, 27] | further results
C=C(O/N=C(\C(=O)N[C@@H]1C(=O)N2C(C(=O)O)=C(CSc3nc(-c4ccc(OC(C)=O)c(OC(C)=O)c4)c(CC(=O)O)s3)CS[C@H]12)c1csc(N)n1)C(=O)O [Example 16, trisodium 3-[4-(3,4-diacetoxyphenyl)-5-carboxylatomethylthiazol-2-yl]thiomethyl-7β-[2-(2-aminothiazol-4-yl)-2-(1-carboxylato-1-vinyloxyimino)acetamido]-3-cephem-4-carboxylate (syn-isomer)] | 0.39 µg/mL | 0.2 µg/mL | 1.56 µg/mL | 0.05 µg/mL | 0.78 µg/mL | 0.78 µg/mL | 0.1 µg/mL | 0.1 µg/mL | < 0.006 µg/mL | 0.05 µg/mL | < 0.006 µg/mL | 0.025 µg/mL | 0.78 µg/mL | 0.78 µg/mL | < 0.006 µg/mL | 12.5 µg/mL | 0.05 µg/mL | 0.78 µg/mL |  |  | MIC ([1]; NO.4, 16 h): 0.2 µg/mL; MIC ([15]; AKR17, 16 h): 1.56 µg/mL
C=C(O/N=C(\C(=O)N[C@@H]1C(=O)N2C(C(=O)O)=C(C[n+]3ccc(CCS(=O)(=O)[O-])cc3)CS[C@H]12)c1csc(N)n1)C(=O)O [Example 8, 7β-[2-(2-aminothiazol-4-yl)-2-(1-carboxy-1-vinyloxyimino)acetamido]-3-[4-(2-sulfonatoethyl)-1-pyridinio]methyl-3-cephem-4-carboxylic acid (syn-isomer)] | 0.2 µg/mL (≈ 0.313 µM) | 0.78 µg/mL (≈ 1.22 µM) | 0.05 µg/mL (≈ 0.0783 µM) | 0.05 µg/mL (≈ 0.0783 µM) |  | 0.05 µg/mL (≈ 0.0783 µM) | 0.2 µg/mL (≈ 0.313 µM) |  |  | 0.05 µg/mL (≈ 0.0783 µM) |  | 0.05 µg/mL (≈ 0.0783 µM) |  |  | 12.5 µg/mL (≈ 19.6 µM) | 6.25 µg/mL (≈ 9.79 µM) | 0.025 µg/mL (≈ 0.0391 µM) |  | 12.5 µg/mL (≈ 19.6 µM) | > 100 µg/mL | MIC ([6]; GN5482, 10^6 CFU/ml, β-Lactamase-producing strain, 37° C., 16 hours, read-out: MIC): 0.39 µg/mL (≈ 0.611 µM); MIC [9, 25]: 0.39 µg/mL (≈ 0.611 µM); MIC ([10]; PC1602, 16 h): 0.025 µg/mL (≈ 0.0391 µM); MIC ([12]; HX19, 16 h): 0.025 µg/mL (≈ 0.0391 µM); MIC [14, 26]: 12.5 µg/mL (≈ 19.6 µM); MIC [16, 28]: 3.12 µg/mL (≈ 4.89 µM); MIC [20, 25]: 3.12 µg/mL (≈ 4.89 µM)
C=C(O/N=C(\C(=O)N[C@@H]1C(=O)N2C(C(=O)O)=C(C[n+]3ccc(CS(=O)(=O)[O-])cc3)CS[C@H]12)c1csc(N)n1)C(=O)O [Example 7, 7β-[2-(2-aminothiazol-4-yl)-2-(1-carboxy-1-vinyloxyimino]acetamido]-3-(4-sulfonatomethyl-1-pyridinio)methyl-3-cephem-4-carboxylic acid (syn-isomer)] | 0.1 µg/mL (≈ 0.16 µM) |  | 0.05 µg/mL (≈ 0.08 µM) | 0.2 µg/mL (≈ 0.32 µM) | 1.56 µg/mL (≈ 2.5 µM) | 0.1 µg/mL (≈ 0.16 µM) | 0.39 µg/mL (≈ 0.624 µM) | 0.39 µg/mL (≈ 0.624 µM) |  | 0.025 µg/mL (≈ 0.04 µM) | 0.0125 µg/mL (≈ 0.02 µM) |  |  |  | 12.5 µg/mL (≈ 20 µM) | 25 µg/mL (≈ 40 µM) |  |  | 50 µg/mL (≈ 80 µM) | > 100 µg/mL | MIC [3, 25]: 3.12 µg/mL (≈ 4.99 µM); MIC ([10]; PC1602, 16 h): 0.025 µg/mL (≈ 0.04 µM); MIC [13, 25]: 0.0125 µg/mL (≈ 0.02 µM); MIC [14, 26]: 25 µg/mL (≈ 40 µM); MIC [16, 28]: 3.12 µg/mL (≈ 4.99 µM); MIC [19, 29]: 0.0125 µg/mL (≈ 0.02 µM); MIC [20, 25]: 3.12 µg/mL (≈ 4.99 µM)
C=C(O/N=C(\C(=O)N[C@@H]1C(=O)N2C(C(=O)O)=C(CSc3nnnn3C)CS[C@H]12)c1csc(N)n1)C(=O)O [Example 19, disodium 7β-[2-(2-aminothiazol-4-yl)-2-(1-carboxylato-1-vinyloxyimino)acetamido]-3-(1-methyl-1H-tetrazol-5-yl)thiomethyl-3-cephem-4-carboxylate (syn-isomer)] | 0.1 µg/mL | 0.78 µg/mL | 0.1 µg/mL | 0.025 µg/mL | 0.39 µg/mL | 0.05 µg/mL | 0.05 µg/mL | 0.2 µg/mL | 0.0125 µg/mL | 0.025 µg/mL | < 0.006 µg/mL |  | 6.25 µg/mL | 6.25 µg/mL | 3.12 µg/mL |  |  | 1.56 µg/mL | 100 µg/mL | > 100 µg/mL | MIC [13, 25]: < 0.006 µg/mL; MIC ([18]; 16 h): 6.25 µg/mL; MIC [19, 29]: < 0.006 µg/mL
